Laboratory results taken from the supplement of paper PMC10307832.

Columns and labels:
Assay in all cases: relative viability (nuclei count vs DMSO), 5 days (fraction); higher = more cells survive
Veliparib + Pemetrexed = compound: C[C@]1(c2nc3c(C(N)=O)cccc3[nH]2)CCCN1 [Veliparib] + Nc1nc2[nH]cc(CCc3ccc(C(=O)N[C@@H](CCC(=O)O)C(=O)O)cc3)c2c(=O)[nH]1 [Pemetrexed] (partner 0.2 µM)
In short: (§1)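 Dosing by pin tool came one day after lung cancer cell lines were seeded in 1536-well plates, using either one drug or a fixed anchor-drug dose plus five library-drug doses (not always all listed) in √10 steps. After 5 days, nuclei were counted on 4× images. Relative viability is treated-well nuclei count divided by vehicle-well nuclei count, and values are medians of duplicate plates.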

[1] = compound: COC1=CC=C(C=C1)CN2C=CC3=C2C=C(C=C3)C(=O)NO + COc1cccc2cc(-c3nc([C@H]4CC[C@H](C(=O)O)CC4)n4ncnc(N)c34)[nH]c12 [OSI-027] (partner 0.5 µM)
In short: as §1

Veliparib = compound: C[C@]1(c2nc3c(C(N)=O)cccc3[nH]2)CCCN1 [Veliparib]
In short: (§2)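 Acceptance criteria were a control CV below 25% and at least one doubling per plate. Lung cancer cell lines in 1536-well plates got five library-drug doses (not always all listed) √10 apart by pinning and were left 5 days with no medium change. Viability divides treated-well nuclei by vehicle-well nuclei and is the median across plates. Nuclei were counted by MetaXpress from 4× Hoechst images.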

[2] = compound: COC1=CC=C(C=C1)CN2C=CC3=C2C=C(C=C3)C(=O)NO
In short: as §2

| Cell Line | relative viability (Veliparib + Pemetrexed; first compound 0.06325 µM) | relative viability (Veliparib + Pemetrexed; first compound 0.2 µM) | relative viability (Veliparib + Pemetrexed; first compound 0.6325 µM) | relative viability (Veliparib + Pemetrexed; first compound 2 µM) | relative viability ([1]; first compound 0.08 µM) | relative viability ([1]; first compound 0.253 µM) | relative viability ([1]; first compound 0.8 µM) | relative viability ([1]; first compound 2.53 µM) | relative viability ([1]; first compound 8 µM) | relative viability (Veliparib; 0.02 µM) | relative viability (Veliparib; 0.06325 µM) | relative viability (Veliparib; 0.2 µM) | relative viability (Veliparib; 0.6325 µM) | relative viability (Veliparib; 2 µM) | relative viability ([2]; 0.08 µM) | relative viability ([2]; 0.253 µM) | relative viability ([2]; 0.8 µM) | relative viability ([2]; 2.53 µM) | relative viability ([2]; 8 µM) | relative viability (Veliparib + Pemetrexed; first compound 0.02 µM) |
| --- | --- | --- | --- | --- | --- | --- | --- | --- | --- | --- | --- | --- | --- | --- | --- | --- | --- | --- | --- | --- |
| PC-14 | 0.13 | 0.168 | 0.143 | 0.134 | 0.89 | 0.87 | 0.739 | 0.857 | 0.658 | 0.805 | 0.936 | 0.974 | 0.955 | 0.993 | 0.84 | 0.939 | 0.998 | 1.01 | 0.904 |  |
| RERF-LC-KJ | 0.454 | 0.505 | 0.462 | 0.464 | 0.589 | 0.594 | 0.662 | 0.617 | 0.495 | 0.964 | 0.939 | 1.01 | 0.938 | 1.01 | 0.956 | 1.03 | 0.984 | 1.03 | 0.969 | 0.43 |
| SK-LU-1 | 1.03 | 1.15 | 0.92 | 0.981 | 0.358 | 0.316 | 0.34 | 0.284 | 0.352 | 1.04 | 1.06 | 1.06 | 0.98 | 1.01 | 0.974 | 0.997 | 1.02 | 1.04 | 0.966 | 0.963 |
| SK-MES-1 | 0.901 | 0.946 | 0.901 | 0.995 | 0.639 | 0.626 | 0.62 | 0.638 | 0.583 | 1.03 | 0.939 | 0.977 | 0.961 | 1.03 | 1.07 | 1.02 | 0.988 | 1.03 | 0.997 | 1 |
| SW 900 | 0.492 | 0.493 | 0.467 | 0.511 | 0.559 | 0.533 | 0.63 | 0.622 | 0.447 |  | 0.645 | 0.909 | 0.807 | 0.777 | 0.862 | 0.802 | 0.934 | 0.941 | 0.732 |  |
| UMC-11 | 0.749 | 0.878 | 0.804 | 0.759 |  | 0.469 | 0.554 | 0.463 | 0.477 | 1.09 | 0.997 | 0.964 | 0.926 | 0.983 | 0.711 | 0.965 | 1.02 | 0.907 | 0.964 | 0.931 |
